# Columns and labels:
# [1] = test system: plasma (prothrombin time); experiment: Anticoagulatory activity: prothrombin time (PT) in plasma; conditions: 37° C., 3 minutes incubation, plasma species not given, in some cases means, read-out: IC50 [μM] (concentration of test substance which effects a doubling of the prothrombin time)
# Procedure: The anticoagulatory activity of the test substances is determined in vitro in human plasma, rabbit plasma and rat plasma. To this end, blood is drawn off in a mixing ratio of sodium citrate/blood of 1:9 using a 0.11 molar sodium citrate solution as receiver. Immediately after the blood has been drawn off, it is mixed thoroughly and centrifuged at about 4000 g for 15 minutes. The supernatant is pipetted off.
# The prothrombin time (PT, synonyms: thromboplastin time, quick test) is determined in the presence of varying concentrations of test substance or the corresponding solvent using a commercial test kit (Neoplastin® from Boehringer Mannheim or Hemoliance® RecombiPlastin from Instrumentation Laboratory). The test compounds are incubated with the plasma at 37° C. for 3 minutes. Coagulation is then started by addition of thromboplastin, and the time when coagulation occurs is determined. The concentration of test substance which effects a doubling of the prothrombin time is determined Representative activity data from this test are given in Table 3 below (in some cases as means of individual determinations): […]
# New Zealand rabbits = experiment: Rabbit venous reperfusion and bleeding model (combi model rabbit); format: in vivo; conditions: for Increase in reperfusion (blood flow/time area): on top of tissue plasminogen activator; for Significance of increase in reperfusion: p > 0.05
# Procedure: Male New Zealand rabbits having a weight of 2.8-3.4 kg are anaesthetized using an intramuscular ketamine/Rompun bole injection. The animal is then shaved at the places needed for the surgery. A continuous infusion of anaesthetic (ketamine/Rompun) is administered via the left auricular vein using an indwelling catheter. Left and right femoral vein and right femoral artery are catheterized with a polyethylene tube (PESO). The jugular vein is then carefully exposed such that the vessel is stressed and damaged as little as possible and no more fat is present at the vessel. Using a suitable apparatus for measuring flow (Powerlab, Transonic TS420 incl. flow probe head), the flow in the jugular vein is recorded (Lab Chart Software). Prior to the start of the experiment, twice 1.4 ml of citrated blood are removed from the rabbit via the femoral artery, and the basal bleeding time at the rim of the ear is determined. Once there has been a constant flow from the jugular vein for 10 min (complete regeneration of the vessel after preparation), a 2 cm section of the vein is pinched off using small vessel clamps. In a Petri dish, the citrated blood removed earlier (300 μl) is mixed with calcium chloride (0.25 M, 90 μl) and thrombin (25 U/ml, 60 μl). 180 μl of the blood/calcium chloride/thrombin mixture are quickly drawn into a 1 ml syringe and, via a 27G cannula, injected into the pinched-off segment of the vessel. The injection site is pinched off with a pair of tweezers for one minute so that no blood can escape. Two minutes after injection of the thrombus, the test substance is administered as bole and infusion via the left femoral vein catheter. 14 minutes after the thrombus injection, tissue plasminogen activator is administered as bole and infusion (Actilyse®, 20 μg/kg bole & 150 μg/kg/h infusion) at the right femoral vein. 15 minutes after thrombus injection, the stasis is opened and the flow probe head is attached. Blood flow in the vessel is recorded for 120 minutes, and the vessel is kept moist with warm 0.9% aqueous sodium chloride solution during this time. After 105 minutes of reperfusion, the ear bleeding time is determined again. At the end of the experiment, after 120 minutes of reperfusion, 1.4 ml of citrated blood are removed, the animal is sacrificed painlessly by a bole injection of 1.5 ml of T61 and the weight of the thrombus in the jugular vein is determined. The blood removed before and after the experiment is used to obtain plasma and to determine the ex vivo coagulation time.
# The area obtainable with tissue plasminogen activator alone is subtracted from the area achieved using the respective substance or dosage. The resulting area is a measure of the improvement of reperfusion by the test substance (Table 4).
# thrombin [2] = molecular target: T1, thrombin (Homo sapiens (Human), UniProt P00734); experiment: Measurement of the thrombin inhibition in buffer; format: biochemical; conditions: human thrombin 0.06 nmol/l, Tris buffer pH 7.4, 22° C.; substrate Boc-Asp(OBzl)-Pro-Arg-AMC; in some cases means
# Procedure: To determine the thrombin inhibition of the substances listed above, a biochemical test system is constructed in which the conversion of a thrombin substrate is used for determining the enzymatic activity of human thrombin. Here, thrombin cleaves aminomethylcoumarin, which is measured fluorescently, from the peptic substrate. The determinations are carried out in microtitre plates.
# Substances to be tested are dissolved in various concentrations in dimethyl sulphoxide and incubated for 15 min with human thrombin (0.06 nmol/l dissolved in 50 mmol/l of Tris buffer [C,C,C-tris(hydroxymethyl)aminomethane], 100 mmol/l of sodium chloride, 0.1% BSA [bovine serum albumin], pH 7.4) at 22° C. The substrate (5 μmol/l Boc-Asp(OBzl)-Pro-Arg-AMC from Bachem) is then added. After 30 min of incubation, the sample is excited at a wavelength of 360 nm and the emission is measured at 460 nm. The measured emissions of the test batches with test substance are compared to the control batches without test substance (only dimethyl sulphoxide instead of test substance in dimethyl sulphoxide) and the IC50 values are calculated from the concentration/activity relationships.
# thrombin [3] = molecular target: T1, thrombin; experiment: Thrombin-inhibitory activity in plasma samples (ecarin-activated); format: biochemical; conditions: citrate plasma, prothrombinase activated by ecarin, fluorogenic thrombin substrate; in some cases means; read-out: IC50 [nM] thrombin inhibition in plasma samples
# Procedure: To determine the inhibition of thrombin in plasma samples, plasma […] is activated by ecarin. Thrombin activity and/or its inhibition by potential inhibitors is/are then measured fluorenscently by addition of a substrate.
# The substances to be tested are dissolved in various concentrations in dimethyl sulphoxide and diluted with water. In white 96-well flat-bottomed plates, 20 μl of substance dilution are mixed with 20 μl of ecarin solution (ecarin reagent, from Sigma E-0504, final concentration 20 mU per reaction) in Ca buffer (200 mM Hepes+560 mM sodium chloride+10 mM calcium chloride+0.4% PEG) or with 20 μl of Ca buffer (as unstimulated control). Furthermore, 20 μl of fluorogenic thrombin substrate (from Bachem I-1120, final concentration 50 μmol/l) and 20 μl of citrate plasma (from Octapharma) are added, and the mixture is homogenized well. The plate is measured in a SpectraFluorplus Reader using a 360 nm excitation filter and a 465 nm emission filter every minute over 20 minutes.
# [4] = bole 0.33 mg/kg, continuous infusion 0.43 mg/kg/h
# [5] = bole 0.08 mg/kg, continuous infusion 0.09 mg/kg/h
smiles,measurement,setting,value
"COc1cc(C(=O)N2CC(C)OC[C@@H]2CCO)cc2nc(NC(CF)c3cccc(Cl)c3)oc12 (single isomer, unassigned) [Example 15]",IC50,[1],1.1 µM
same,Increase in reperfusion (blood flow/time area),New Zealand rabbits; [4],12.2%
same,Significance of increase in reperfusion,New Zealand rabbits; [4],insignificant effect
"COc1cc(C(=O)N2CC(C)(CC(C)O)OC[C@H]2C)cc2nc(NC(CF)c3cccc(Cl)c3)oc12 (stereo partly drawn) [Example 12, (2-{[1-(3-Chlorophenyl)-2-fluoroethyl]amino}-7-methoxy-1,3-benzoxazol-5-yl)[(5R)-2-(2-hydroxypropyl)-2,5-dimethylmorpholin-4-yl]methanone]",IC50,thrombin [2],0.1 nM
same,IC50,[1],1.5 µM
same,IC50,thrombin [3],14.7 nM
"COc1cc(C(=O)N2CC(C)OC[C@]23C[C@H](O)C3)cc2nc(NC(CF)c3cccc(Cl)c3)oc12 (stereo partly drawn) [Example 21, (2-{[1-(3-Chlorophenyl)-2-fluoroethyl]amino}-7-methoxy-1,3-benzoxazol-5-yl)(cis-2-hydroxy-7-methyl-8-oxa-5-azaspiro[3.5]non-5-yl)methanone]",IC50,thrombin [2],1.4 nM
same,IC50,[1],1.3 µM
same,IC50,thrombin [3],6.2 nM
"COc1cc(C(=O)N2CC(C)(C)OC[C@H]2CCO)cc2nc(NC(CF)c3cccc(Cl)c3)oc12 (stereo partly drawn) [Example 25, (2-{[1-(3-Chlorophenyl)-2-fluoroethyl]amino}-7-methoxy-0,2-benzoxazol-5-yl)[(5R)-5-(2-hydroxyethyl)-2,2-dimethylmorpholin-4-yl]methanone]",IC50,thrombin [2],4.3 nM
same,IC50,[1],1.1 µM
same,IC50,thrombin [3],4.7 nM
"O=C(NC[C@H]1CN(c2ccc(N3CCOCC3=O)cc2)C(=O)O1)c1ccc(Cl)s1 [rivaroxaban, 5-chloro-N-({(5S)-2-oxo-3-[4-(3-oxo-4-morpholinyl)-phenyl]-1,3-oxazolidin-5-yl}methyl)-2-thiophenecarboxamide, reference compound]",Increase in reperfusion (blood flow/time area),New Zealand rabbits; [5],13.0%
same,Significance of increase in reperfusion,New Zealand rabbits; [5],insignificant effect
